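The compound was tested at five concentrations on cells cultured in 96-well plates, with a 48-hour exposure period. TGI: total growth inhibition.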
How the values were obtained:
Test in all cases: DTP human tumour cell line panel, 48 h
SK-MEL-28 melanoma = tested on: SK-MEL-28 melanoma
DU-145 prostate = tested on: DU-145 prostate
SNB-19 CNS = tested on: SNB-19 CNS
786-0 renal = tested on: 786-0 renal
SR leukemia = tested on: SR leukemia
UACC-62 melanoma = tested on: UACC-62 melanoma
MOLT-4 leukemia = tested on: MOLT-4 leukemia
HCT-116 colon = tested on: HCT-116 colon
SF-539 CNS = tested on: SF-539 CNS
OVCAR-5 ovarian = tested on: OVCAR-5 ovarian
SK-MEL-5 melanoma = tested on: SK-MEL-5 melanoma
K-562 leukemia = tested on: K-562 leukemia
NCI-H522 lung = tested on: NCI-H522 lung
CAKI-1 renal = tested on: CAKI-1 renal
NCI-H23 lung = tested on: NCI-H23 lung
KM12 colon = tested on: KM12 colon
PC-3 prostate = tested on: PC-3 prostate
MCF7 breast = tested on: MCF7 breast
MDA-MB-435 = tested on: MDA-MB-435
HOP-62 NSCLC = tested on: HOP-62 NSCLC
RPMI-8226 leukemia = tested on: RPMI-8226 leukemia
RXF 393 renal = tested on: RXF 393 renal
SK-OV-3 ovarian = tested on: SK-OV-3 ovarian
UACC-257 melanoma = tested on: UACC-257 melanoma
M14 melanoma = tested on: M14 melanoma
CCRF-CEM leukemia = tested on: CCRF-CEM leukemia
A498 renal = tested on: A498 renal
SW-620 colon = tested on: SW-620 colon
SNB-75 CNS = tested on: SNB-75 CNS
SF-295 CNS = tested on: SF-295 CNS
A549 NSCLC = tested on: A549 NSCLC
UO-31 renal = tested on: UO-31 renal
HL-60(TB) leukemia = tested on: HL-60(TB) leukemia
EKVX NSCLC = tested on: EKVX NSCLC
OVCAR-8 ovarian = tested on: OVCAR-8 ovarian
HS 578T breast = tested on: HS 578T breast
MDA-N = tested on: MDA-N
MALME-3M melanoma = tested on: MALME-3M melanoma
U251 CNS = tested on: U251 CNS
SK-MEL-2 melanoma = tested on: SK-MEL-2 melanoma
T-47D breast = tested on: T-47D breast
IGROV1 ovarian = tested on: IGROV1 ovarian
NCI/ADR-RES ovarian = tested on: NCI/ADR-RES ovarian
MDA-MB-231 breast = tested on: MDA-MB-231 breast
SF-268 CNS = tested on: SF-268 CNS
COLO 205 colon = tested on: COLO 205 colon
ACHN renal = tested on: ACHN renal
HT29 colon = tested on: HT29 colon
SN12C renal = tested on: SN12C renal
LOX IMVI melanoma = tested on: LOX IMVI melanoma
NCI-H226 lung = tested on: NCI-H226 lung
TK-10 renal = tested on: TK-10 renal
OVCAR-3 ovarian = tested on: OVCAR-3 ovarian
BT-549 breast = tested on: BT-549 breast
HCT-15 colon = tested on: HCT-15 colon

O=C(Nc1cccc([N+](=O)[O-])c1)c1n[nH]n(-c2cccc([N+](=O)[O-])c2)c1=O
TGI (SK-MEL-28 melanoma): > 100 µM | TGI (DU-145 prostate): > 100 µM | TGI (SNB-19 CNS): > 100 µM | TGI (786-0 renal): > 100 µM | TGI (SR leukemia): > 100 µM | TGI (UACC-62 melanoma): > 100 µM | TGI (MOLT-4 leukemia): > 100 µM | TGI (HCT-116 colon): > 100 µM | TGI (SF-539 CNS): > 100 µM | TGI (OVCAR-5 ovarian): > 100 µM | TGI (SK-MEL-5 melanoma): > 100 µM | TGI (K-562 leukemia): > 100 µM | TGI (NCI-H522 lung): > 100 µM | TGI (CAKI-1 renal): > 100 µM | TGI (NCI-H23 lung): > 100 µM | TGI (KM12 colon): > 100 µM | TGI (PC-3 prostate): > 100 µM | TGI (MCF7 breast): > 100 µM | TGI (MDA-MB-435): > 100 µM | TGI (HOP-62 NSCLC): > 100 µM | TGI (RPMI-8226 leukemia): > 100 µM | TGI (RXF 393 renal): > 100 µM | TGI (SK-OV-3 ovarian): > 100 µM | TGI (UACC-257 melanoma): > 100 µM | TGI (M14 melanoma): > 100 µM | TGI (CCRF-CEM leukemia): > 100 µM | TGI (A498 renal): > 100 µM | TGI (SW-620 colon): > 100 µM | TGI (SNB-75 CNS): > 100 µM | TGI (SF-295 CNS): > 100 µM | TGI (A549 NSCLC): > 100 µM | TGI (UO-31 renal): > 100 µM | TGI (HL-60(TB) leukemia): > 100 µM | TGI (EKVX NSCLC): > 100 µM | TGI (OVCAR-8 ovarian): > 100 µM | TGI (HS 578T breast): > 100 µM | TGI (MDA-N): > 100 µM | TGI (MALME-3M melanoma): > 100 µM | TGI (U251 CNS): > 100 µM | TGI (SK-MEL-2 melanoma): > 100 µM | TGI (T-47D breast): > 100 µM | TGI (IGROV1 ovarian): > 100 µM | TGI (NCI/ADR-RES ovarian): > 100 µM | TGI (MDA-MB-231 breast): > 100 µM | TGI (SF-268 CNS): > 100 µM | TGI (COLO 205 colon): > 100 µM | TGI (ACHN renal): > 100 µM | TGI (HT29 colon): > 100 µM | TGI (SN12C renal): > 100 µM | TGI (LOX IMVI melanoma): > 100 µM | TGI (NCI-H226 lung): > 100 µM

CC1CC/C(=C\c2ccc(F)cc2)C(=O)/C1=C/c1ccc(F)cc1 (stereo unspecified)
TGI (TK-10 renal): 8.64 µM | TGI (SK-MEL-28 melanoma): 37 µM | TGI (DU-145 prostate): 17.1 µM | TGI (SNB-19 CNS): 35.5 µM | TGI (786-0 renal): 8.42 µM | TGI (OVCAR-3 ovarian): 28.1 µM | TGI (UACC-62 melanoma): 24.7 µM | TGI (MOLT-4 leukemia): 8.81 µM | TGI (HCT-116 colon): 5.4 µM | TGI (SF-539 CNS): 9.15 µM | TGI (OVCAR-5 ovarian): 25.4 µM | TGI (SK-MEL-5 melanoma): 24.1 µM | TGI (K-562 leukemia): > 100 µM | TGI (CAKI-1 renal): 12.1 µM | TGI (NCI-H23 lung): 25.5 µM | TGI (BT-549 breast): 10.1 µM | TGI (HCT-15 colon): 5.39 µM | TGI (KM12 colon): 14.5 µM | TGI (PC-3 prostate): 28.3 µM | TGI (MCF7 breast): 16.6 µM | TGI (MDA-MB-435): 28.4 µM | TGI (RPMI-8226 leukemia): 5.52 µM | TGI (RXF 393 renal): 9.98 µM | TGI (SK-OV-3 ovarian): 36.7 µM | TGI (UACC-257 melanoma): 29.9 µM | TGI (M14 melanoma): 39.4 µM | TGI (CCRF-CEM leukemia): 14.5 µM | TGI (A498 renal): 25.3 µM | TGI (SW-620 colon): 87.6 µM | TGI (SNB-75 CNS): 11.7 µM | TGI (SF-295 CNS): 7.38 µM | TGI (UO-31 renal): 23.6 µM | TGI (EKVX NSCLC): 17.9 µM | TGI (OVCAR-8 ovarian): 9.14 µM | TGI (HS 578T breast): 31.4 µM | TGI (MDA-N): 13.5 µM | TGI (MALME-3M melanoma): 32.8 µM | TGI (U251 CNS): 22.7 µM | TGI (SK-MEL-2 melanoma): 25.6 µM | TGI (T-47D breast): 21 µM | TGI (IGROV1 ovarian): 11.1 µM | TGI (NCI/ADR-RES ovarian): 5.75 µM | TGI (MDA-MB-231 breast): 6.56 µM | TGI (SF-268 CNS): 14.6 µM | TGI (COLO 205 colon): 18.5 µM | TGI (ACHN renal): 13.6 µM | TGI (HT29 colon): 12.1 µM | TGI (SN12C renal): 9.9 µM | TGI (LOX IMVI melanoma): 7 µM | TGI (NCI-H226 lung): 24.1 µM

Source: PubChem BioAssay (NCI)
